Data on 7 compounds can be found in publication PMC12686126, “LL‐37 Inhibits TMPRSS2‐Mediated S2' Site Cleavage and SARS‐CoV‐2 Infection but Not Omicron Variants” (Cell Proliferation, 2025).

“Also recorded” adds a separate entry of the source. Structures can show the parent of a compound that is named as a salt.

Series [1] concerns TMPRSS2. Put plainly: TMPRSS2 activity measurement. The class given is cell-based, human. The note with it: 293T‐T2 cells, 2 h at 37°C; Boc‐Phe‐Ser‐Arg‐MCA 100 μM, fluorescence 360/460 nm; LL‐37 0–20 μg/mL, CM and E64d 0–100 μM. As for the experimental part: 293T‐T2 cells (5 × 10^4/well) in a black 96‐well flat‐bottom plate were treated for 2 h at 37°C with LL‐37 (0, 1, 5, 10, 20 μg/mL), camostat mesylate (0, 0.1, 0.5, 1, 5, 10, 50, 100 μM, MedChemExpress), or E64d (0, 0.1, 0.5, 1, 5, 10, 50, 100 μM, MedChemExpress). The peptide and inhibitors were prepared with DMEM free of FBS. To measure the proteolytic activity of TMPRSS2, the medium was replaced with 100 μL of DMEM free of FBS and phenol red and containing 100 μM of Boc‐Phe‐Ser‐Arg‐MCA (Peptide, Japan). The fluorescence intensity was measured after 2 h of incubation at 37°C using a microplate reader (Biotek, USA). The excitation/emission wavelengths were 360/460 nm. The values were expressed as a percent of fluorescence intensity relative to the control. Camostat mesylate and E64d were used as the positive and negative controls respectively. All procedures were carried out in the dark.

For series [2], the system named is SARS‐CoV‐2. As to conditions: cited from earlier work.
The test system of series [3] is SARS‐CoV‐2 spike pseudovirus. The class given is cell-based.
In series [4] the test system is Delta spike. The class given is cell-based, SARS‐CoV‐2 Delta.
Series [5] concerns BA.1 spike. The class given is cell-based, SARS‐CoV‐2 Omicron BA.1.
Series [6] concerns SARS‐CoV‐2 spike. The class given is cell-based.
Series [7] relates to BA.4/5 spike. The class given is cell-based, SARS‐CoV‐2 Omicron BA.4/5.
Series [8] has as its system BA.4/5 spike pseudovirus. The class given is cell-based, SARS‐CoV‐2 Omicron BA.4/5.
Series [9] concerns Delta spike S2 subunit. Type of series: cell-based, SARS‐CoV‐2 Delta.
Series [10] concerns SARS‐CoV‐2 spike pseudovirus (S1 and S2 subunits) attached to 293T‐A2 cells. The class given is cell-based.
Series [11] has as its system BA.1 spike S2 subunit. The class given is cell-based, SARS‐CoV‐2 Omicron BA.1.
Series [12] has as its system BA.2 spike pseudovirus. Type of series: cell-based, SARS‐CoV‐2 Omicron BA.2.
In series [13] the test system is Beta spike pseudovirus. The class given is cell-based, SARS‐CoV‐2 Beta.
In series [14] the test system is FPRL‐1 and CXCR2. The note with it: receptors involved in chemotaxis of monocytes, neutrophils and lymphocytes; ref [65], [66]; cited from earlier work.
The test system of series [15] is SARS‐CoV‐2 spike pseudovirus. Type of series: cell-based. This is another data set of the same source.
The test system of series [16] is 293T‐A2 and 293T‐Mock cell membranes. The class given is cell-based. As to conditions: 293T-A2 vs 293T-Mock cells treated 2 h with LL-37; western blot (Figure S4A).
The test system of series [17] is TLR3, TLR7, or TLR9. As to conditions: binds DNA/RNA, elevates type I interferon response; ref [63], [64]; cited from earlier work.
Series [18] concerns BA.2.12.1 spike pseudovirus. The class given is cell-based, SARS‐CoV‐2 Omicron BA.2.12.1.
Series [19] concerns BA.3 spike pseudovirus. The class given is cell-based, SARS‐CoV‐2 Omicron BA.3.
For series [20] the following is noted: no reference given; cited from earlier work.
Series [21] has as its system SARS‐CoV‐2 spike S2 subunit. Type of series: binding. As to conditions: pH 9.6.
In series [22] the test system is SARS‐CoV‐2 spike. On the set-up: species or system mouse (BALB/c). As to conditions: mouse, in vivo.
The subject of series [23] is receptor binding domain (RBD) of spike S1 and the ACE2 receptor. The note with it: by binding to the RBD and/or ACE2; ref [36], [37], [41], [42]; cited from earlier work.
Series [24] concerns BA.4/5 spike pseudovirus (S1 and S2 subunits) attached to 293T‐A2 cells. The class given is cell-based, SARS‐CoV‐2 Omicron BA.4/5.
For series [25], the system named is Delta spike pseudovirus. The class given is cell-based, SARS‐CoV‐2 Delta.
For series [26], the system named is BA.1 spike pseudovirus. The class given is cell-based, SARS‐CoV‐2 Omicron BA.1.
The test system of series [27] is FPR‐2 receptor. The note with it: leading to immunosuppression; ref [67], [68]; cited from earlier work.
In series [28] the test system is SARS‐CoV‐2 spike S1 and S2 subunits. Type of series: binding.
Series [29] relates to SARS‐CoV‐2 spike. On the set-up: species or system mouse (BALB/c). The note with it: mouse, in vivo. The source holds these as a separate data set.
Series [30] has as its system BA.4/5 spike. Also on record: species or system mouse (BALB/c). As to conditions: mouse, in vivo.
Series [31] has as its system SARS‐CoV‐2 spike pseudovirus. The class given is cell-based. The source holds these as a separate data set.
The conditions of series [32]: ref [44]; cited from earlier work.
In series [33] the test system is BA.4/5 spike S2 subunit. Type of series: cell-based, SARS‐CoV‐2 Omicron BA.4/5.
Series [34] relates to S2 subunit of BA.1 spike. Type of series: binding, SARS‐CoV‐2 Omicron BA.1.
Series [35] concerns NF‐kB p50 and p65 subunits. The note with it: leading to immunosuppression; ref [67], [68]; cited from earlier work.
The test system of series [36] is BA.4/5 spike. On the set-up: species or system mouse (BALB/c). As to conditions: mouse, in vivo. This is another data set of the same source.
The subject of series [37] is BA.1 spike pseudovirus (S1 and S2 subunits) attached to 293T‐A2 cells. Type of series: cell-based, SARS‐CoV‐2 Omicron BA.1.
For series [38], the system named is SARS‐CoV‐2 spike S2 subunit. The class given is cell-based.

Regarding `CN(C)C(=O)COC(=O)Cc1ccc(OC(=O)c2ccc(NC(=N)N)cc2)cc1` [CM, camostat mesylate, reference compound], in [1], the “suppression of cellular TMPRSS2 activity” value was “suppressed cellular TMPRSS2 activity at sub‐micromolar concentrations”. Further, in series [2], the “antiviral activity against SARS‐CoV‐2” value was “shows antiviral activity against SARS‐CoV‐2”. The “reduction of pseudovirus‐induced RLU” value in [3] is given as “about 60%”.
In the case of `O=C(CC1NCCCC1O)Cn1cnc2cc(Br)c(Cl)cc2c1=O` (stereo not shown) [halofuginone], the “inhibition of SARS‐CoV‐2 entry and replication” value in series [2] is “high inhibition”.
As for `COC(=O)C[C@](O)(CCCC(C)(C)O)C(=O)O[C@@H]1C(OC)=C[C@]23CCCN2CCc2cc4c(cc2[C@H]13)OCO4` [homoharringtonine], in series [2], the “inhibition of SARS‐CoV‐2 entry and replication” value is given as “high inhibition”.
Take `CNC(=O)[C@@H](NC(=O)[C@H](CC(C)C)[C@H](O)C(=O)NO)C(C)(C)C` [marimastat, reference compound]: the “inhibition of SARS‐CoV‐2‐induced membrane fusion” value in series [2] was “inhibitory activity against SARS‐CoV‐2‐induced membrane fusion at sub‐micromolar levels”. For the same compound, the “reduction of pseudovirus‐induced RLU” value in series [3] is given as ~25%.
Regarding “KRKSFDGFKELILKGRQEIKFKRDIFLVNLRETRPSV [KR‐37, reference compound]”, the “inhibition of cell–cell fusion” value in series [4], in series [5], in [6] and in [7] was “showed no inhibition” each time.
Regarding “LLGDFFRKSKEKIGKEFKRIVQRIKDFLRNLVPRTES [LL‐37]”, the “inhibition of pseudovirus entry” value in series [8] was “inhibitory effects were compromised”; in series [12] it was “inhibitory effects were compromised”; in series [13], “significantly inhibit”; in series [18] it was “inhibitory effects were compromised”; in [19], “inhibitory effects were compromised”; in [25], “significantly inhibit”. Also, in series [26], the “inhibition of pseudovirus entry” value is “inhibitory effects were compromised”. In addition, the “generation of S2' fragment” value in series [9] was “consistent result with that of SARS‐CoV‐2”; in series [11] it was “did not significantly reduce”; in [33], “did not significantly reduce”; in series [38] it was “remarkably reduced”. The “inhibition of cell–cell fusion” value is “inhibited” in [4], “compromised inhibition” in series [5], “inhibited” in [6] and “compromised inhibition” in series [7]. In addition, the “inhibition of fusion, pretreatment vs treatment during infection” value in series [4] (10 μg/mL) and in series [6] (10 μg/mL) was “stronger inhibition of fusion than treatment during infection” in each case. The “plasma membrane‐attached spike (S1 and S2 subunits)” value in series [10], in [24] and in series [37] was “equal quantity” throughout. Moreover, in series [1], the “suppression of cellular TMPRSS2 activity” value was “not LL‐37 or E64d suppressed”. In series [14], the receptor binding result is “directly bind with receptors such as FPRL‐1 and CXCR2”. Besides, the “reduction of RLU caused by LL‐37 with endosomal inhibitor” value in series [15] is “no significant difference”. In series [16], the “LL‐37 attachment to cell membrane” value was “could attach to the cell membrane independent of the ACE2 expression”. In series [17], the “effect on TLR signalling” value was “augment signalling via TLR3, TLR7, or TLR9”. In [20], the “overall positive net charge” value is “+6”. For the same compound, the “binding of S2 subunit to immobilised LL‐37” value is recorded as “much stronger binding” in series [21] and “much lower binding” in series [34]. For the same compound, the “IgM responses and titers” value in series [22] was “elevated IgM responses and titers”; in series [36], “no difference and low levels to background”. Moreover, the “block of RBD–ACE2 interaction” value in series [23] is given as “block the interaction”. Moreover, in [27], the receptor interaction entry is recorded as “interact with the FPR‐2 receptor”. Also, in [28], the “spike subunit bound to plasma membrane facilitated by LL‐37” value is reported as “S2 subunit rather than the S1 subunit”. Moreover, in [28], the “spike subunits bridged by LL‐37 to plasma membranes” value is reported as “bridged more S2 subunits than S1 subunits”. For the same compound, the IgG responses entry in series [29] is “enhanced”. In addition, the “IgG responses and titers” value is “no significant difference” in [29]; “no difference and low levels to background” in series [30]. The “prevention of pseudovirus entry” value in series [31] was “prevented; also recorded: not if added 2 h post infection (hpi) and 4 hpi”. For the same compound, in series [32], the “attachment to lipid bilayer” value was “can attach to lipid bilayer via the C‐terminal VPRTES tail”. For the same compound, the “prevention of NF‐kB translocation” value in [35] is “prevent the translocation of NF‐kB p50 and p65 subunits”.
Turning to α1‐antitrypsin, the “inhibition of SARS‐CoV‐2 entry and replication” value in series [2] is given as “high inhibition”.
